This is an account of results in US4352807A, “Hexahydro-trans-pyridoindole neuroleptic agents” (Pfizer Inc., priority 1980, dated 1982).

The target in one assay is T1, dopamine receptors (Rattus norvegicus, UniProt P61169).
T1 construct: brains were immediately dissected on an ice-cold glass plate to remove corpus striatum; from tissue; host or cells: rat corpus striatum, washed homogenate (Sprague-Dawley CD males)
As to the kind of experiment: Inhibition of ^3 H-spiroperidol binding to dopamine receptors (rat corpus striatum homogenate). Also noted: species or system rat (Sprague-Dawley CD). The conditions noted are these: 0.5 nM ^3 H-spiroperidol, 10 min at 37° C. The method, then:
The procedure was as follows:
Rats (Sprague-Dawley CD males, 250-300 g., Charles River Laboratories, Wilmington, Mass.) were decapitated, and brains were immediately dissected on an ice-cold glass plate to remove corpus striatum (~100 mg./brain). Tissue was homogenized in 40 volumes (1 g.+40 ml). of ice-cold 50 mM. […] The tissue suspension was placed in a 37° C. water bath for 5 minutes to insure inactivation of tissue monoamine oxidase and then kept on ice until used. The incubation mixture consisted of 0.02 ml. inhibitor solution (the desired concentration of the derivative to be tested in stock solution). […] Tubes were incubated in sequence for 10 minutes at 37° C. in groups of three, after which 0.9 ml. of each incubation tube was filtered through Whatman FG/B filters using a high vacuum pump. Each filter was placed in a scintillation vial, 10 ml. of liquid scintillation fluor was added and each vial was vigorously vortexed for about five seconds. Samples were allowed to stand over night, until filters were translucent, vortexed again and then counted 1.0 minute for radioactivity. Binding was calculated as femtomales (10^-15 moles) of ^3 H-spiroperidol bound per mg. protein. Controls (vehicle or 1 butaclamol, 10^-7 M; 4.4 mg. dissolved in 200 μl. glacial acetic acid, then diluted to 2.0 ml. with DDW for 10^-4 M stock solution, kept refrigerated), blank (d-butaclamol, 10^-7 M; (4.4 mg./2 ml.) for 10^-4 M stock solution, same protocol as 1-butaclamol); and inhibitor solutions were run in triplicate. […] Insoluble drugs were dissolved in 50% ethanol (1% ethanol incubation).
**DDW=Double Distilled Water.

Assay [1] deals with amphetamine-induced symptoms (characteristic amphetamine behaviour of cage movement). As to the kind of experiment: Antagonism of amphetamine symptoms in rats (rat amphetamine test). The format is in vivo. The conditions noted are these: block of cage movement in 50% of rats; for ED50: Rattus norvegicus, sc; for ED50, rat amphetamine test, 1 hr.: 60 min; for ED50, rat amphetamine test, 5 hr.: 300 min; for ED50, rat amphetamine test, 24 hr.: 1440 min. An excerpt: The tranquilizing activity of the derivatives may be determined using the well known standard procedure-antagonism of amphetamine-induced symptoms in rats.
The effects of the above examples of Derivatives on prominent amphetamine-induced symptoms were studied in rats by a rating scale modeled after the one reported by Quinton and Halliwell, and Weissman. Rats were placed individually in a covered plastic cage measuring approximately 26 cm.×42 cm×16 cm. After a brief period of acclimation of the cage, the rats in each group, commonly, five animals per dose level, were treated subcutaneously (s.c.) with a selected dose of the Derivative to be tested. They were then treated 1, 5 and 24 hrs. later with d-amphetamine sulfate, 5 mg./kg. intraperitoneally (i.p.). […] The time of rating chosen coincides with the peak action of amphetamine which is 60-80 min. after dosing.

The mark [2] stands for this setting: 1 h, s.c., d-amphetamine sulfate 5 mg/kg i.p. 1 hr after treatment, read-out: ED50, rat amphetamine test, 1 hr.
Setting [3] is: 5 h, read-out: ED50, rat amphetamine test, 5 hr., s.c., d-amphetamine sulfate 5 mg/kg i.p. 5 hr after treatment.
Where [4] appears, read: 24 h, s.c., d-amphetamine sulfate 5 mg/kg i.p. 24 hr after treatment, read-out: ED50, rat amphetamine test, 24 hr.
Where [5] appears, read: s.c., d-amphetamine sulfate 5 mg/kg i.p. 1 hr after treatment.
Where [6] appears, read: s.c., d-amphetamine sulfate 5 mg/kg i.p. 5 hr after treatment.
Setting [7] is: s.c., d-amphetamine sulfate 5 mg/kg i.p. 24 hr after treatment.

SMILES strings stand for the structures. Read-outs that look alike come from different tables or passages of the source.

T1 sequence (P61169 whole entry): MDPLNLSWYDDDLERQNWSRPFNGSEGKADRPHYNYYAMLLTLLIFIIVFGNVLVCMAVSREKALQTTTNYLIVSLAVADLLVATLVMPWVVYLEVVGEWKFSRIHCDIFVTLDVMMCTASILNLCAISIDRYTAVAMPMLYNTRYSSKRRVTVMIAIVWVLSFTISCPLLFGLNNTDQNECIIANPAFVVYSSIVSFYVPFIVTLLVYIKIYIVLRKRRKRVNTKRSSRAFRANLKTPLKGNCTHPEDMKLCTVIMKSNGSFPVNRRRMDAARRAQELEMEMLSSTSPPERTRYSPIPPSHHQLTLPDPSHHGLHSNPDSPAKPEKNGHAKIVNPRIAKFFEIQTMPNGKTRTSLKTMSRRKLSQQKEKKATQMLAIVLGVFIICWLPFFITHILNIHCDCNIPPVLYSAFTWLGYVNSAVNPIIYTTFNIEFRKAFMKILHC

As a reminder, the IC50 is the concentration needed to halve the response being measured. A high value points to weaker potency. For orientation: ED50 means the dose that gives a 50% effect, or the effect in half of the subjects. On to `NCCCCN1CC[C@H]2[C@H](C1)c1cc(F)ccc1N2c1ccc(F)cc1` (relative stereo) [Example 2, (±)2-(1'-amino-n-but-4'-yl)-5-(p-fluorophenyl)-8-fluoro-2,3,4,4a,5,9b-hexahydro-trans-4a,9b-1(H)-pyrido[4,3-b]indole], for which, on dopamine receptors, the half-inhibitory concentration (IC50) was determined as 24 nM. In addition, the 50% effective dose (ED50) in assay [1] (setting [2]) was 17.7 mg/kg; in assay [1] (setting [3]), 4.5 to 11.5 mg/kg; in assay [1] (setting [4]), 17.7 mg/kg.

For the compound `CC(=O)NCCCCN1CC[C@H]2[C@H](C1)c1cc(F)ccc1N2c1ccc(F)cc1` (relative stereo) [Example 3, (±)2-(N-acetyl-1'-amino-n-but-4'-yl)-5-(p-fluorophenyl)-8-fluoro-2,3,4,4a,5,9b-hexahydro-trans-4a,9b-1(H)-pyrido[4,3-b]indole], the IC50 on dopamine receptors was determined as 13 nM. Moreover, the results for the ED50 in assay [1] (setting [2]), in assay [1] (setting [3]) and in assay [1] (setting [4]) were 0.02 mg/kg, 0.006 mg/kg and 0.66 mg/kg, respectively.

Turning to `CC(=O)NCCN1CC[C@H]2[C@H](C1)c1cc(F)ccc1N2c1ccc(F)cc1` (relative stereo) [Example 6, 2-(N-acetyl-2-aminoethyl)-5-(p-fluorophenyl)-8-fluoro-2,3,4,4a,5,9b-hexahydro-trans-4a,9b-1(H)-pyrido[4,3-b]indole], at dopamine receptors, the IC50 came to 16 nM. Moreover, the median effective dose (ED50) came to 0.11 mg/kg in assay [1] (setting [2]), 0.36 mg/kg in assay [1] (setting [3]) and 1 mg/kg in assay [1] (setting [4]).

Regarding `CC(=O)NCCCN1CC[C@H]2[C@H](C1)c1cc(F)ccc1N2c1ccc(F)cc1` (relative stereo) [Example 7, (±) 2-(N--acetyl-1'-amino-n-prop-3-yl)], the IC50 on dopamine receptors turned out to be 10 nM.

As to `CC(=O)NCCCCCN1CC[C@H]2[C@H](C1)c1cc(F)ccc1N2c1ccc(F)cc1` (relative stereo) [Example 8, (±) 2-(N--acetyl-1'-amine-n-pent-5'-yl)], the IC50 on dopamine receptors came out at 9 nM. Besides, the values for the 50% effective dose (ED50) in assay [1] (setting [2]), in assay [1] (setting [3]) and in assay [1] (setting [4]) were 0.01 mg/kg, 0.004 mg/kg and 0.4 mg/kg, respectively.

At dopamine receptors, `CC(=O)NCCCCCCN1CC[C@H]2[C@H](C1)c1cc(F)ccc1N2c1ccc(F)cc1` (relative stereo) [Example 9, (±) 2-(N--acetyl-1'-amino-n-hex-6'-yl)] yielded a 50% inhibitory concentration (IC50) of 8 nM. In addition, the values for the ED50 in assay [1] (setting [2]), in assay [1] (setting [3]) and in assay [1] (setting [4]) were 0.023 mg/kg, 0.002 mg/kg and 0.032 mg/kg, respectively.

As for `CC(=O)NCCCCCCCN1CC[C@H]2[C@H](C1)c1cc(F)ccc1N2c1ccc(F)cc1` (relative stereo) [Example 10, (±) 2-(N--acetyl-1'-amino-n-hept-7'-yl)], the 50% inhibitory concentration (IC50) at dopamine receptors was 9 nM. The 50% effective dose (ED50) in assay [1] (setting [2]) came out at 0.09 mg/kg; in assay [1] (setting [3]), 0.018 mg/kg; in assay [1] (setting [4]) it was 0.05 mg/kg.

Regarding `O=C(NCCCCN1CC[C@H]2[C@H](C1)c1cc(F)ccc1N2c1ccc(F)cc1)c1ccccc1` (relative stereo) [Example 13, (±) 2-(N--benzoyl-1'-amino-n-but-4'-yl)], the 50% effective dose (ED50) in assay [1] (setting [2]) lay within 0.1 to 0.3 mg/kg; in assay [1] (setting [3]), 0.01 to 0.03 mg/kg; in assay [1] (setting [4]), 0.3 to 1 mg/kg.

At dopamine receptors, `CCOC(=O)NCCCCN1CC[C@H]2[C@H](C1)c1cc(F)ccc1N2c1ccc(F)cc1` (relative stereo) [Example 14, (±) 2-(N--ethoxycarbonyl-1'-amino-n-but-4'-yl)] came in with a half-inhibitory concentration (IC50) of 11 nM. Also, the results for the ED50 in assay [1] (setting [2]), in assay [1] (setting [3]) and in assay [1] (setting [4]) were 0.05 mg/kg, 0.02 mg/kg and 0.3 mg/kg, respectively.

The compound `COc1ccccc1C(=O)NCCCCN1CC[C@H]2[C@H](C1)c1cc(F)ccc1N2c1ccc(F)cc1` (relative stereo) [Example 15, (±) 2-[N--(o-methoxybenzoyl)-1'-amino-n-but-4'-yl]] gave an IC50 on dopamine receptors of 14 nM. Also, the ED50 in assay [1] (setting [2]) is 0.45 mg/kg; in assay [1] (setting [3]), 0.18 mg/kg; in assay [1] (setting [4]) it was 1 mg/kg.

As for `Cc1ccc(S(=O)(=O)NCCCCN2CC[C@H]3[C@H](C2)c2cc(F)ccc2N3c2ccc(F)cc2)cc1` (relative stereo) [Example 16, (±) 2-(N--p-toluenesulfonyl-1'-amino-n-but-4'-yl)], the ED50 in assay [1] (setting [2]) and in assay [1] (setting [3]) was 1 mg/kg in each case.

The compound `CC(=O)NCCCCN1CC[C@H]2[C@H](C1)c1ccccc1N2c1ccccc1` (relative stereo) [Example 17, (±) 2-(N--acetyl-1'-amino-n-but-4'-yl)-5-phenyl-2,3,4,-4a,9b-hexahydro-trans-4a,9b-1(H)-pyrido[4,3-b]indole] returned a concentration for half-maximal inhibition (IC50) on dopamine receptors of 16 nM.

On to `CC(=O)NCCCCN1CCC2C(C1)c1cc(F)ccc1N2c1ccc(F)cc1` (single isomer, unassigned; (+)) [Example 11, (+) enantiomer of 2-(N--acetyl-1-'-amino-n-but-4-yl)], for which the concentration for half-maximal inhibition (IC50) on dopamine receptors came out at 4.7 nM. Besides, the “ED50, rat amphetamine test, 1 hr.” value in assay [1] (setting [5]) worked out at 0.02 mg/kg. In assay [1] (setting [6]), the “ED50, rat amphetamine test, 5 hr.” value is recorded as 0.006 mg/kg. For the same compound, in assay [1] (setting [7]), the “ED50, rat amphetamine test, 24 hr.” value came to 0.28 mg/kg.

Consider `CC(=O)NCCCCN1CCC2C(C1)c1cc(F)ccc1N2c1ccc(F)cc1` (single isomer, unassigned; (-)) [Example 12, (-) enantiomer of 2-(N--acetyl-1'-amino-n-but-4'-yl)], for which, on dopamine receptors, the IC50 worked out at 1000 nM. Moreover, the “ED50, rat amphetamine test, 1 hr.” value in assay [1] (setting [5]) stood at 1 mg/kg. Besides, in assay [1] (setting [6]), the “ED50, rat amphetamine test, 5 hr.” value is recorded as 1 mg/kg. Also, the “ED50, rat amphetamine test, 24 hr.” value in assay [1] (setting [7]) is given as 1 mg/kg.
